From ChEMBL document CHEMBL3045028, “Synthesis, AntiBacteriol, and Antifungal Activities of Some New Benzimidazoles” (1992)
Active and inactive are the calls of the source. No cut-off for these calls is given here.

Experiments:
Assay type in all cases: functional
[1] = system: Agrobacterium sp.; test: In vitro antibacterial activity against Agrobacterium radiobacter pv. tumefaciens assessed as inhibition at 0.1 %
[2] = system: Xanthomonas campestris pv. campestris; test: In vitro antibacterial activity against Xanthomonas campestris pv. campestris KF2 assessed as inhibition at 0.1 %
[3] = system: Xanthomonas euvesicatoria; test: In vitro antibacterial activity against Xanthomonas euvesicatoria P-2092 assessed as inhibition at 0.1 %
[4] = system: Botrytis cinerea; test: In vitro antifungal activity against Botryotinia fuckeliana assessed as inhibition at 0.1 %
[5] = system: Pseudomonas viridiflava; test: In vitro antibacterial activity against Pseudomonas viridiflava 8 assessed as inhibition at 0.1 %
[6] = system: Pseudomonas savastanoi pv. glycinea; test: In vitro antibacterial activity against Pseudomonas syringae pv. glycinea S1 assessed as inhibition at 0.1 %
[7] = system: Pseudomonas savastanoi pv. phaseolicola; test: In vitro antibacterial activity against Pseudomonas syringae pv. phaseolicola E81 assessed as inhibition at 0.1 %
[8] = system: Xanthomonas phaseoli pv. phaseoli; test: In vitro antibacterial activity against Xanthomonas campestris pv. phaseoli assessed as inhibition at 0.1 %
[9] = system: Agrobacterium tumefaciens; test: In vivo antibacterial activity against Agrobacterium tumefaciens infected carrots assessed as effective at 0.01%

SMILES	diameter of the inhibition zone (DIZ) [1]	diameter of the inhibition zone (DIZ) [2]	diameter of the inhibition zone (DIZ) [3]	diameter of the inhibition zone (DIZ) [4]	other results
Cc1ccccc1Cn1c(/N=C/c2ccc([N+](=O)[O-])o2)nc2ccccc21	3 cm	3 cm	3 cm	–	–
Cc1cccc(Cn2c(/N=C/c3ccc([N+](=O)[O-])o3)nc3ccccc32)c1	3 cm	3 cm	2 cm	–	–
Cc1cccc(OCn2c(/N=C/c3ccc([N+](=O)[O-])o3)nc3ccccc32)c1	3 cm	3 cm	3 cm	–	–
Nc1nc2ccccc2n1Cc1ccccc1Cl	–	3 cm	2 cm	–	inhibition [4]: inactive; diameter of the inhibition zone (DIZ) [5]: 2 cm; inhibition [6]: inactive; inhibition [7]: inactive; diameter of the inhibition zone (DIZ) [8]: 1 cm
Cc1cc2ncn(Cc3ccccc3C)c2cc1C	3 cm	2 cm	3 cm	–	–
O=[N+]([O-])c1ccc(/C=N/c2nc3ccccc3n2Cc2cccc(Cl)c2)o1	–	–	3 cm	1 cm	Efficacy [9]: 100%; inhibition [5]: inactive; diameter of the inhibition zone (DIZ) [6]: 1 cm; inhibition [7]: inactive; inhibition [2]: inactive; inhibition [8]: inactive
CCn1c(/N=C/c2ccc([N+](=O)[O-])o2)nc2ccccc21	3 cm	3 cm	1 cm	3 cm	Efficacy [9]: 70%
Cc1cc2nc(N)n(Cc3ccccc3Cl)c2cc1C	3 cm	2 cm	3 cm	–	–
CCCCCCn1c(/N=C/c2ccc([N+](=O)[O-])o2)nc2ccccc21	3 cm	2 cm	2 cm	–	Efficacy [9]: 70%
Cc1ccc(Cn2c(/N=C/c3ccc([N+](=O)[O-])o3)nc3cc(C)c(C)cc32)cc1	3 cm	–	3 cm	–	diameter of the inhibition zone (DIZ) [8]: 3 cm
Cc1ccc(Cn2c(N)nc3cc(C)c(C)cc32)cc1	3 cm	2 cm	2 cm	–	–
Cc1cc2c(cc1C)[n+](N)cn2Cc1ccc(Cl)cc1.O=S(=O)([O-])c1ccccc1	–	2 cm	2 cm	–	diameter of the inhibition zone (DIZ) [5]: 2 cm; inhibition [6]: inactive; inhibition [7]: inactive; diameter of the inhibition zone (DIZ) [8]: 2 cm
O=[N+]([O-])c1ccc(/C=N/c2nc3ccccc3[nH]2)o1	3 cm	2 cm	1 cm	3 cm	diameter of the inhibition zone (DIZ) [5]: 2 cm; diameter of the inhibition zone (DIZ) [6]: 2 cm; diameter of the inhibition zone (DIZ) [7]: 2 cm; diameter of the inhibition zone (DIZ) [8]: 3 cm
Nc1nc2ccccc2n1/N=C/c1ccc([N+](=O)[O-])o1	–	2 cm	1 cm	–	diameter of the inhibition zone (DIZ) [5]: 2 cm; diameter of the inhibition zone (DIZ) [6]: 2 cm; diameter of the inhibition zone (DIZ) [7]: 2 cm; diameter of the inhibition zone (DIZ) [8]: 3 cm
CCCCn1c(/N=C/c2ccc([N+](=O)[O-])o2)nc2ccccc21	3 cm	3 cm	1 cm	3 cm	Efficacy [9]: 70%
CCCCCCn1c(N)nc2ccccc21	–	–	–	3 cm	Efficacy [9]: 30%
O=[N+]([O-])c1ccc(/C=N/c2nc3ccccc3n2Cc2ccc(Cl)cc2)o1	3 cm	–	–	–	inhibition [4]: inactive
CCn1c(N)nc2ccccc21	3 cm	3 cm	1 cm	3 cm	–
Cc1ccc(Cn2c(N)nc3ccccc32)cc1	3 cm	3 cm	3 cm	–	–
CCn1cnc2cc(C)c(C)cc21	3 cm	3 cm	3 cm	–	–
Cc1cc2nc(N)n(Cc3cccc(Cl)c3)c2cc1C	2 cm	3 cm	3 cm	3 cm	diameter of the inhibition zone (DIZ) [5]: 2 cm; diameter of the inhibition zone (DIZ) [6]: 2 cm; diameter of the inhibition zone (DIZ) [7]: 2 cm; diameter of the inhibition zone (DIZ) [8]: 3 cm

SMILES	diameter of the inhibition zone (DIZ) [1]	diameter of the inhibition zone (DIZ) [2]	diameter of the inhibition zone (DIZ) [3]	diameter of the inhibition zone (DIZ) [4]	other results
Cc1cc2ncn(C(C)(C)C)c2cc1C	3 cm	3 cm	3 cm	–	–
Cc1cc2nc(/N=C/c3ccc([N+](=O)[O-])o3)n(Cc3ccccc3Cl)c2cc1C	3 cm	–	3 cm	–	diameter of the inhibition zone (DIZ) [8]: 3 cm
Cc1cc2nc(N)n(Cc3cccc(F)c3)c2cc1C	3 cm	3 cm	3 cm	–	–
CCCCn1c(/N=C/c2ccc([N+](=O)[O-])o2)nc2cc(C)c(C)cc21	–	–	–	3 cm	–
O=[N+]([O-])c1ccc(/C=N/c2nc3ccccc3n2Cc2cccc(F)c2)o1	3 cm	3 cm	3 cm	–	–
Cc1cc2nc(/N=C/c3ccc([N+](=O)[O-])o3)n(Cc3cccc(Cl)c3)c2cc1C	3 cm	–	–	–	inhibition [4]: inactive
Cc1cc2ncn(Cc3cccc(Cl)c3)c2cc1C	–	1 cm	2 cm	1 cm	diameter of the inhibition zone (DIZ) [5]: 2 cm; diameter of the inhibition zone (DIZ) [6]: 2 cm; inhibition [7]: inactive; inhibition [8]: inactive
Cc1cc2nc(N)n(Cc3ccc(Cl)cc3)c2cc1C	–	2 cm	1 cm	–	diameter of the inhibition zone (DIZ) [5]: 1 cm; diameter of the inhibition zone (DIZ) [6]: 2 cm; diameter of the inhibition zone (DIZ) [7]: 2 cm; diameter of the inhibition zone (DIZ) [8]: 1 cm
Cc1ccc(Cn2c(/N=C/c3ccc([N+](=O)[O-])o3)nc3ccccc32)cc1	–	–	–	1 cm	Efficacy [9]: 70%; inhibition [5]: inactive; diameter of the inhibition zone (DIZ) [6]: 1 cm; inhibition [7]: inactive; inhibition [2]: inactive; inhibition [8]: inactive; inhibition [3]: inactive
Nc1nc2ccccc2n1Cc1cccc(F)c1	3 cm	3 cm	3 cm	–	–
Cc1ccccc1Cn1c(N)nc2ccccc21	3 cm	3 cm	3 cm	–	–
COc1cccc(Cn2cnc3cc(C)c(C)cc32)c1	3 cm	2 cm	3 cm	–	–
Cc1cc2nc(/N=C/c3ccc([N+](=O)[O-])o3)[nH]c2cc1C	3 cm	3 cm	3 cm	–	–
CCCCn1cnc2cc(C)c(C)cc21	3 cm	2 cm	2 cm	3 cm	–
CCn1c(N)nc2cc(C)c(C)cc21	2 cm	3 cm	3 cm	3 cm	–
Cc1cc2nc(/N=C/c3ccc([N+](=O)[O-])o3)n(Cc3cccc(F)c3)c2cc1C	3 cm	–	3 cm	–	diameter of the inhibition zone (DIZ) [8]: 3 cm
Cc1cccc(Cn2cnc3cc(C)c(C)cc32)c1	3 cm	2 cm	3 cm	–	–
CC(C)(C)n1c(N)nc2ccccc21	–	–	–	3 cm	–
Cc1ccc(Cn2cnc3cc(C)c(C)cc32)cc1	–	2 cm	–	1 cm	diameter of the inhibition zone (DIZ) [5]: 1 cm; diameter of the inhibition zone (DIZ) [6]: 1 cm; diameter of the inhibition zone (DIZ) [7]: 1 cm; inhibition [8]: inactive; inhibition [3]: inactive
Nc1nc2ccccc2n1Cc1ccc(Cl)cc1	–	1 cm	–	1 cm	diameter of the inhibition zone (DIZ) [5]: 1 cm; diameter of the inhibition zone (DIZ) [6]: 1 cm; diameter of the inhibition zone (DIZ) [7]: 1 cm; inhibition [8]: inactive; inhibition [3]: inactive
Cc1cc2nc(N)n(/N=C/c3ccc([N+](=O)[O-])o3)c2cc1C	3 cm	3 cm	3 cm	–	–
